Here are results for one compound from patent publication US20250302795A1, “SMALL MOLECULE COMPOUNDS WITH NEGATIVE REGULATORY EFFECTS ON Nrf2 SIGNALING [sequence] AND THEIR POTENTIAL APPLICATIONS” (Beijing Hebabiz Biotechnology Co., Inc., priority 2022, published 2025).

What all share (type): in vivo, rat
The subject of experiment [1] is rats with nonalcoholic steatohepatitis induced by a high-fat diet and CCl4. The experiment is described as follows: Four indices of serum hepatic fibrosis, high-fat diet and CCl4 model. As to conditions: positive control group. As for the experimental part:
(§1) Starting from the seventh week, they received subcutaneous injections of a 30% CCl4 olive oil solution at a dosage of 0.2 ml/100 g behind their back twice per week for a total of four times. Once the model was successfully replicated, the corresponding drugs were administered orally (10 ml/kg) in each treatment group, and both the normal control group and the model group received equal volumes of a 0.5% CMC-Na solution once daily for ten consecutive weeks. Throughout the experimental period, the rats were provided with ad libitum access to food and water, while the animal chamber was maintained under controlled conditions of quietness, natural lighting, a temperature of 25±0.5° C., and a humidity level of 55±5%. The rats' body weights were measured once per week and recorded.
(§2) At the end of the tenth week of administration, all rats underwent a 16-hour fasting period following their final administration and were intraperitoneally injected with a 20% ulinastatin solution (10 ml/kg) for anesthesia. Subsequently, blood samples were collected from the abdominal aorta and allowed to stand for one hour, and then centrifuged at 4° C. for fifteen minutes at a speed of 3000 r/min. Finally, the upper serum was stored at −80° C. Following the instructions provided with the biochemical index detection kit, levels of HDL-C, LDL-C, NEFA, AST, ALT, UA, TC, TG, PCIII, IV-C LN and HA in rat serum were determined.

Experiment [2] concerns rats with non-alcoholic steatohepatitis induced by high-fat diet. Nature of the experiment: Liver indices, non-alcoholic steatohepatitis model induced by high-fat diet. As to the method:
The normal control group was fed a standard diet for twelve weeks while the other groups were fed a high-fat diet consisting of 88% basal diet+10% lard+2% cholesterol for twelve weeks. After establishing the model, the drug groups received their respective treatments at a dosage of 10 ml/kg while the normal and model groups received an equal volume of 0.5% CMC-Na solution. The rats were provided with ad libitum access to water and food, while the animal chamber was maintained under controlled conditions of quietness, natural lighting, a temperature of 25±0.5° C., and a humidity level of 55±5%. The rats' body weights were measured once per week and recorded.
(3) Liver indices was determined by dividing the wet weight of the liver by the body weight of rats and multiplying by 100%, after liver tissue was isolated, washed with normal saline, dried using filter paper, and weighed following blood sampling from the abdominal aorta. (4) HE staining and oil red staining were performed on liver tissue samples obtained from the abdominal aorta of rats. The tissue was fixed in 10% neutral formalin, followed by embedding, slicing, dewaxing, staining, transparency treatment, and sealing using routine procedures. Microscopic examination was conducted to observe the pathological changes in rat liver tissues across different groups. Additionally, the NASH-CRN scoring system was employed to assess NAS scores. (5) Detection of Proteins Associated with Non-Alcoholic Steatohepatitis

The subject of experiment [3] is rats with nonalcoholic steatohepatitis induced by a high-fat diet and CCl4. Nature of the experiment: Serum biochemical indices, high-fat diet and CCl4 model. As to conditions: end of tenth week of administration, positive control group. As to the method:
as §1, §2
According to the kit instructions, the concentration of fasting plasma glucose (FPG) in serum was determined using colorimetry, while the concentration of fasting insulin (FINS) in serum was measured through radioimmunoassay.

SMILES strings stand for the structures.

`COC(=O)c1cc(OC)c2c(c1-c1c(CO)cc(OC)c3c1OCO3)OCO2` [Bicyclol]: in experiment [1], the HA was found to be 45.78 ± 22.99 µg/L, the IV-C turned out to be 13.22 ± 4.50 µg/L, the LN was found to be 110.64 ± 44.60 µg/L and the PC-III amounted to 8.78 ± 1.87 µg/L. For the same compound, the “liver indices versus model group (in words)” value in experiment [2] (NR218 at high, medium and low doses, P<0.01 or P<0.05) is “significant decrease compared to the model group”. Besides, in experiment [2] (high-fat diet model, positive control group), the “Liver Indices” value stood at 3.77 ± 1.17 %. In experiment [3] (FPG x FINS/22.5), the HOMA-IR turned out to be 5.48. In addition, in experiment [3] (serum), the ALT is reported as 44.39 U/L, the AST stood at 66.96 U/L, the HDL-C came out at 1.29 mmol/L and the LDL-C came to 0.90 mmol/L. In experiment [3] (serum), this compound registered an NEFA of 0.77 mmol/L, a TC of 1.85 mmol/L, a TG of 0.63 mmol/L and a UA of 126 µmol/L.
